From PubChem BioAssay (NCI) come the findings set out here.

Several values for one entry are separate records, joined by “and”; a condition that tells them apart may be missing. Equal entries are not always repeated.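 Cultured in 96-well plates, cells were exposed to test compound for 48 hours across five concentrations. GI50 marks 50% less growth. Definition used: TGI = concentration required for complete inhibition of growth.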

Among the test systems are UACC-257 melanoma; UO-31 renal; SR leukemia; SW-620 colon; SF-539 CNS; MALME-3M melanoma; MDA-MB-435; M14 melanoma; SNB-75 CNS; HCT-116 colon.
Holding throughout (assay): NCI anticancer screen, dose series, 48 h

As for `O=c1cnnc(N/N=C/c2ccccc2O)[nH]1`, the GI50 was 0.489 µM in the assay on UACC-257 melanoma; 1.61 µM with UO-31 renal; 1.51 µM with SR leukemia; 0.442 µM in the assay on SW-620 colon; 3.2 µM with SF-539 CNS; 0.426 µM with MALME-3M melanoma. Moreover, the GI50 is 3.54 µM with MDA-MB-435, 0.449 µM in the assay on M14 melanoma, 8.03 µM in the assay on SNB-75 CNS and 0.0337 µM with HCT-116 colon. In addition, the TGI in the assay on UACC-257 melanoma is 6.8 µM; in the assay with UO-31 renal, 13.5 µM; in the assay on SR leukemia, above 100 µM; with SW-620 colon, above 100 µM; in the assay with SF-539 CNS it was above 100 µM; in the assay with MALME-3M melanoma it was 47.5 µM. Further, the TGI with MDA-MB-435 is above 100 µM; in the assay with M14 melanoma, 19.2 µM; in the assay with SNB-75 CNS it was 87.3 µM; with HCT-116 colon it was above 100 µM.
On to `Cn1cc(-c2nc(-c3c[nH]c4ncccc34)cs2)c2ccccc21`, for which the GI50 was 66.3 µM in the assay with UACC-257 melanoma; above 100 µM in the assay on UO-31 renal; 3.72 µM with SR leukemia; 35.9 µM in the assay on SW-620 colon; 48.7 µM in the assay with SF-539 CNS; 31.9 µM with MALME-3M melanoma. For the same compound, the GI50 is 3.84 µM with MDA-MB-435, 19.3 µM in the assay on M14 melanoma, 18.5 µM with SNB-75 CNS and 24.2 µM with HCT-116 colon. The TGI in the assay on UACC-257 melanoma, with UO-31 renal, in the assay on SR leukemia, in the assay with SW-620 colon, with SF-539 CNS and in the assay on MALME-3M melanoma was above 100 µM throughout. Besides, the TGI in the assay on MDA-MB-435 is 30 µM; in the assay on M14 melanoma, above 100 µM; in the assay on SNB-75 CNS, above 100 µM; with HCT-116 colon, above 100 µM.
Regarding `CC1(C)N=C(N)N=C(N)N1c1ccc(Cl)cc1`, the GI50 with UACC-257 melanoma was 75 µM; in the assay with UO-31 renal, above 100 µM; in the assay on SR leukemia it was 20.5 µM; in the assay with SW-620 colon, 0.832 µM; with SF-539 CNS, 1.94 µM; in the assay with MALME-3M melanoma it was 16.1 µM. Moreover, the GI50 is 1.18 µM in the assay with MDA-MB-435, 5.52 µM in the assay with M14 melanoma, 8.16 µM in the assay on SNB-75 CNS and 0.627 µM with HCT-116 colon. Also, the TGI with UACC-257 melanoma, in the assay with UO-31 renal, in the assay on SR leukemia, in the assay on SW-620 colon, with SF-539 CNS and in the assay with MALME-3M melanoma was above 100 µM throughout. Besides, the TGI in the assay with MDA-MB-435, in the assay with M14 melanoma, with SNB-75 CNS and in the assay with HCT-116 colon was above 100 µM throughout.
In the case of `CC(C)(C)c1cc(NC(=O)Nc2ccc(-c3cn4c(n3)sc3cc(OCCN5CCOCC5)ccc34)cc2)no1`, the GI50 in the assay with UACC-257 melanoma was 9.01 µM and 3.43 µM and > 10 µM; with UO-31 renal it was 3.62 µM and 0.45 µM and 3.93 µM; in the assay with SW-620 colon, 11.4 µM and 2.86 µM and > 10 µM; with SF-539 CNS it was 0.698 µM and 0.303 µM and 0.623 µM; in the assay on MALME-3M melanoma it was 2.62 µM and 1.59 µM and 6.17 µM; in the assay with MDA-MB-435, 6.85 µM and 4.32 µM and 7.3 µM. The GI50 in the assay on M14 melanoma was 8.49 µM and 1.28 µM and 6.56 µM; in the assay on SNB-75 CNS, 1.41 µM and 2.38 µM and 1.94 µM; in the assay on HCT-116 colon, 4.23 µM and 0.576 µM and 5.19 µM. The TGI in the assay on UACC-257 melanoma was 23.5 µM and 16 µM and > 10 µM; with UO-31 renal, 18.3 µM and 4.57 µM and > 10 µM; in the assay with SR leukemia it was > 47.9 µM and 11.2 µM and > 10 µM; in the assay with SW-620 colon, 27.2 µM and 17.6 µM and > 10 µM; in the assay with SF-539 CNS, 15.4 µM and 1.65 µM and > 10 µM; in the assay on MALME-3M melanoma, 14.7 µM and 13.3 µM and > 10 µM. Besides, the TGI in the assay on MDA-MB-435 is 27.7 µM and 21.2 µM and > 10 µM; with M14 melanoma, 26.8 µM and 16 µM and > 10 µM; in the assay with SNB-75 CNS it was 6.52 µM and 19.1 µM and > 10 µM; in the assay with HCT-116 colon it was 19 µM and 11.1 µM and > 10 µM.
As to `C/C(=N\OCC(O)CNCCSCc1ccccc1)c1ccccc1Cl` (centres undefined), the TGI with UACC-257 melanoma turned out to be 35.6 µM; in the assay with UO-31 renal it was 32.4 µM; with SR leukemia it was 78.3 µM; in the assay on SW-620 colon it was 40.6 µM; in the assay on SF-539 CNS it was 36.9 µM; in the assay on MALME-3M melanoma it was 37.2 µM. In addition, the TGI with MDA-MB-435 is 34.4 µM; in the assay with M14 melanoma it was 48 µM; in the assay with SNB-75 CNS, 39.9 µM; in the assay on HCT-116 colon it was 54.7 µM.
`CC(=O)CC/C=C(\C)[C@H](O)[C@H](C)C(=O)O[C@H]1C[C@H](C)C=C2C=C[C@@]3(C)O[C@@H](O)CC(=O)[C@]3(C)[C@H]21`: the GI50 in the assay with UACC-257 melanoma is 0.589 µM; in the assay on UO-31 renal it was 0.383 µM; in the assay on SR leukemia, 0.362 µM; in the assay on SW-620 colon, 0.449 µM; with SF-539 CNS it was 0.366 µM; in the assay with MALME-3M melanoma, 0.588 µM. Besides, the GI50 with MDA-MB-435 is 0.508 µM; in the assay on M14 melanoma it was 0.906 µM; in the assay with SNB-75 CNS it was 0.686 µM; with HCT-116 colon, 0.307 µM. Also, the TGI in the assay with UACC-257 melanoma came out at 4.48 µM; with UO-31 renal, 2.9 µM; with SR leukemia it was 12 µM; in the assay on SW-620 colon it was 9.03 µM; with SF-539 CNS, 2.37 µM; in the assay on MALME-3M melanoma, 2.7 µM. The TGI with MDA-MB-435 is 2.09 µM; in the assay on M14 melanoma it was 2.38 µM; in the assay on SNB-75 CNS, 2.61 µM; with HCT-116 colon it was 1.89 µM.
On to `CC(C)[C@@](O)(c1ccc2cc(OC(F)F)c(OC(F)F)cc2c1)c1cn[nH]n1`, for which the GI50 with UACC-257 melanoma is 22.8 µM; in the assay on UO-31 renal, 11.6 µM; in the assay with SR leukemia, 17.3 µM; in the assay with SW-620 colon, 19.7 µM; with SF-539 CNS it was 16.4 µM; with MALME-3M melanoma, 16.8 µM. Besides, the GI50 in the assay on MDA-MB-435 is 16.4 µM; in the assay on M14 melanoma it was 16 µM; in the assay on SNB-75 CNS it was 15.1 µM; in the assay with HCT-116 colon it was 17.2 µM. In addition, the TGI in the assay with UACC-257 melanoma was determined as 48.5 µM; with UO-31 renal, 26.4 µM; in the assay on SR leukemia, 44.7 µM; in the assay on SW-620 colon it was 43.2 µM; in the assay with SF-539 CNS, 32.3 µM; with MALME-3M melanoma, 39.2 µM. Also, the TGI with MDA-MB-435 is 33.3 µM; with M14 melanoma, 33.4 µM; with SNB-75 CNS it was 40.4 µM; in the assay with HCT-116 colon, 32 µM.
Turning to `N/N=C(\c1nc2ccc([N+](=O)[O-])cc2[nH]c1=O)C(O)c1ccc(Cl)c(Cl)c1` (centres undefined), the TGI in the assay with UACC-257 melanoma, in the assay on UO-31 renal, in the assay on SR leukemia, in the assay on SW-620 colon, with SF-539 CNS and with MALME-3M melanoma was above 100 µM in each case. Also, the TGI with MDA-MB-435, with M14 melanoma, in the assay with SNB-75 CNS and in the assay on HCT-116 colon was above 100 µM each time.
